Target: T1, glutathione peroxidase 1 (GPx1) (Homo sapiens, UniProt P07203)
T1 sequence (P07203 1-203): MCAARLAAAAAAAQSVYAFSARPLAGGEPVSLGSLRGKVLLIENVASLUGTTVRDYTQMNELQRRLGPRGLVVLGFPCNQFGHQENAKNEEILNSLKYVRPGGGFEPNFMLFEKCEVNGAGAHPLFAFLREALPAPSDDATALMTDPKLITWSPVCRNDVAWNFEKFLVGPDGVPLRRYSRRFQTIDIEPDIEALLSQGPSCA
Assay: radiometric […]-fumarate binding to bead-bound flag-GPx1

O=C(O)/C=C/C(=O)O [fumarate]
Kd: 75.5 ± 5.22 µM
